# Assay results taken from patent US20090275529A1, “METHOD FOR IMPROVING CARDIOVASCULAR RISK PROFILE OF COX INHIBITORS” (priority 2008, published 2009).
# “And” between values parts separate entries of the source, which are not always exact repeats. Equal entries are not always repeated. “Also recorded” adds a separate entry of the source.
# How the values were obtained:
# [1] = tested on: cholesterol 27-OHase mRNA in THP-1 cells; test: 27-OHase mRNA by real-time PCR (QRT-PCR) in THP-1 monocytes/macrophages; details: for effect on 27-OHase message: THP-1 monocytes/macrophages; for increase in 27-OHase message: THP-1 cells; for 27-OHase mRNA, % of control: THP-1 monocytes, MTX 5 μM, 18 hr, untreated = 100%, n=3
# Description: THP-1 cells: When THP-1 cells had reached 10^6 cells/ml, media was aspirated and cells were rinsed twice with Dulbecco's Phosphate Buffered Saline (DPBS) without calcium and magnesium. The monocytes were then incubated for 24-48 hours in six well plates, (37° C., 5% CO2) under the following conditions: a) RPMI control; b) RPMI containing 5 mM MTX; c) RPMI containing NS-398 (50 μM); d) RPMI containing NS-398 (50 μM) and MTX (increasing doses of 0.1 μM, 0.5 μM and 5 μM); e) RPMI containing IFN-γ (500 U/ml); f) RPMI containing IFN-γ (500 U/ml) and 5 μM MTX.
# TUP-1 macrophages were exposed to the following conditions: a) RPMI control; b) RPMI containing ZM-241385 (10 μM); c) RPMI containing MTX (5 μM); d) RPMI containing IFN-γ (500 U/ml); e) RPMI containing IFN-γ (500 U/ml) and 5 μM MTX; f) RPMI containing ZM-241385 (10 μM) and MTX (5 μM); g) RPMI containing IFN-γ (500 U/ml), ZM-241385 (10 μM) and MTX (5 μM); h) RPMI containing NS-398 (50 μM), ZM-241385 (10 μM) and MTX (5 μM).
# Other experimental conditions of TUP-1 and PBMC included the following parameters and conditions: when THP-1 monocytes had reached 10^6 cells/ml, media was aspirated and cells were rinsed twice with Dulbecco's Phosphate Buffered Saline (DPBS) without calcium and magnesium.
# RNA isolation and quantitation: RNA was isolated using 1 ml Trizol reagent per 10^6 cells and dissolved in nuclease-free water. The quantity of total RNA from each condition was measured by absorption at 260 and 280 wavelengths using quartz cuvettes by ultraviolet spectrophotometry (Hitachi U2010 spectrophotometer).
# RT-PCR analysis of 27-OHase: 27-OHase and ABCA1 mRNA were quantitated by real-time PCR. cDNA was copied from 5 μg of total RNA using M-MLV reverse transcriptase primed with oligo dT. Equal amounts of cDNA were taken from each RT reaction mixture for PCR amplification using cholesterol 27-OHase-specific primers or ABCA1 specific primers as well as glyceraldehyde-3-phosphate dehydrogenase (GAPDH) control primers. The cholesterol 27-OHase-specific primers span a 311 base-pair sequence encompassing nucleotides 491-802 of the human cholesterol 27-OHase cDNA (24). ABCA1 primers yield a 234 BP amplified fragment. Real-time PCR analysis was performed using the SYBR Green PCR Reagents Kit (Applied Biosystems) with a Stratagene MX3005P QPCR System.
# PCR was performed using techniques as follows. Each PCR reaction contained 2.5 μl of the 10 × fluorescent green buffer, 3 μl of 25 mM MgCl2, 2 μl dNTP mix (2500 μM dCTP, 2500 μM dGTP, 2500 μM dATP, and 5000 μM dUTP), 0.15 μl polymerase (5 U/μl; AmpliTaq Gold; Applied Biosystems), 0.25 μl uracil-N-glycosylase (1 U/μlUNG; AmpErase; Applied Biosystems), 0.5 μl of the forward and reverse primers (10 μM concentration), 4 μl cDNA, and water to a final volume of 25 μl. The thermal cycling parameters were as follows: 5 minutes at 95° C. to activate the polymerase (AmpliTaq Gold; Applied Biosystems), followed by 45 cycles of 30 seconds at 95° C. and 45 seconds at 58° C. then 45 seconds at 72° C. Each reaction was done in triplicate.
# The amounts of PCR products were estimated, using software provided by the manufacturer (Stratagene). After completion of PCR cycles, the reactions were heat denatured over a 35° C. temperature gradient from 60° C. to 95° C. To correct for differences in cDNA load among samples, the target PCRs were normalized to a reference PCR involving the endogenous housekeeping genes glyceraldehyde-3-phosphate dehydrogenase (GAPDH) and β-actin. Nontemplate controls were included for each primer pair to check for significant levels of any contaminants. Fluorescence emission spectra were monitored and analyzed.
# [2] = tested on: ABCA1 mRNA in THP-1 cells; test: ABCA1 mRNA by real-time PCR in THP-1 cells; type: cell-based, human; details: for effect on ABCA1 message: THP-1 monocytes/macrophages
# [3] = rats, IV dose 0.3 mg/kg; cited from earlier work
# [4] = tested on: 27-OHase mRNA in Balb/C murine macrophages; test: 27-OHase mRNA in Balb/C murine macrophages; type: cell-based; details: 10^−5M, 3 hours, 37° C., n=3 per group
# From the text: A number of different highly receptor-specific agonists and antagonists of adenosine receptors have been developed that either mimic or block the effects of adenosine. […] Based on the upregulation of 27-OHase in murine cells upon exposure to CGS-21680, the same effect was established in human monocytoid cells. In THP-1 cells, ABCA1 mRNA increased in concert with 27-OHase.
# [5] = tested on: cholesterol 27-OHase protein in THP-1 cells; test: 27-OHase protein by Western immunoblot in THP-1 monocytes; type: cell-based, human; details: NS-398 50 μM
# Description: Western Blots: Total cell lysates were prepared for Western immunoblotting using RIPA lysis buffer (98% PBS, 1% Igepal CA-630, 0.5% sodium deoxycholate, 0.1% sodium dodecyl sulfate [SDS]). 100 μl of RIPA lysis buffer and 10 μl of protease inhibitor cocktail (Sigma) were added to the cell pellet from each condition and incubated on ice for 35 minutes with vortexing every 5 min. Supernatants were collected after centrifuging at 10,000 g at 4° C. for 10 minutes using an Eppendorf 5415C centrifuge. The quantity of protein in each supernatant was measured by absorption at 560 nm using a Hitachi U2010 spectrophotometer.
# Total cell lysate was used for Western blots. Protein samples ([…]) were boiled for 5 minutes, loaded onto a 10% polyacrylamide gel, electrophoresed for 1.5 hr at 100V then transferred to a nitrocellulose membrane in a semi-dry transblot apparatus for 1 hour at 100V. […] The five washes in TTBS were repeated, then the immunoreactive protein was detected using ECL western blotting detection reagent (Amersham Biosciences, Cat No RPN2106) and film development in SRX-101A (Konica Minolta).
# As a control, on the same transferred membrane, beta-actin was detected using mouse anti-beta-actin (diluted in 1:1000, from abCam, product Code: ab6276) and ECL sheep anti-mouse-IgG Horseradish peroxidase-linked species-specific whole antibody (diluted in 1:2000, from Amersham Biosciences, product Code NA931) and all other similar steps as above.
# Total cell lysate was isolated for Western immunoblotting using RIPA lysis buffer (98% PBS, 1% Igepal CA-630, 0.5% sodium deoxycholate, 0.1% SDS). […] The quantity of protein in each supernatant was measured by absorption at 560 nm using a Hitachi U2010 spectrophotometer.
# Cultured TUP-1 monocytic cells were untreated or exposed to NS-398 (50 μM, 18 hr) then untreated or exposed to increasing doses of MTX for 24 hr. Total cell protein was isolated and 27-OHase detected with specific rabbit polyclonal anti-human 27-OHase antibody. […]
# [6] = tested on: THP-1 macrophages; test: Foam cell formation in acetylated LDL-loaded THP-1 macrophages (oil red O); type: cell-based, human
# Description: THP-1 human monocytes (1×10^6 cells/ml) in 12 well plates were treated with phorbol dibutyrate, 300 nM (Sigma) for 48 hr at 37° C. to facilitate differentiation into macrophages. The differentiated macrophages were washed three times with PBS, then incubated alone or in the presence of 10 μM NS-398 (37° C., 5% CO2, 18 hours). Cells were cholesterol-loaded with acetylated LDL (50 μg/ml) and further incubated in RPMI (37° C., 5% CO2) for 48 hours. Studies were performed in triplicate.
# Immediately following incubation, media was aspirated and cells were fixed in the same 12 well plates used for incubation, with 4% paraformaldehyde in water, for 2-4 minutes. Cells were stained with 0.2% Oil-Red-O in methanol for 1-3 min. Cells were observed via light microscope (Axiovert 25-Zeiss) with 100× magnification and then photographed using a Kodak DC 290 Zoom Digital Camera. The number of foam cells formed in each condition were calculated manually and presented as percentage foam cell formation.
# (§1) Media was aspirated and cells were rinsed 3 times with Dulbecco's Phosphate Buffered Saline (PBS) without Ca++ and Mg++. […] THP-1 macrophages were cholesterol-loaded with 50 μg/ml acetylated LDL and incubated an additional 48 h prior to oil red O staining.
# Following incubation, media was aspirated and cells were fixed with 4% paraformaldehyde in water, for 2-4 min. Cells were stained with 0.4% trypan blue for 1-3 min, washed in PBS, and then stained with 0.2% oil-Red-O in methanol for 1-3 min. Observation and photography of cells was performed respectively via light microscope (NIKON Eclipse TE300) with 40× magnification and SONY Progressive 3CCD color video camera. The number of foam cells formed in each condition were calculated manually and presented as percentage foam cell formation.
# [7] = tested on: ABCA1 protein in THP-1 cells; test: ABCA1 protein by Western blot in THP-1 cells; type: cell-based, human; details: 50 μM
# Description: ABCA1 Detection: For ABCA1 detection, macrophage cell lysates were electrophoresed for 1.5 hr at 100V (10% polyacrylamide gel), then transferred to a nitrocellulose membrane. The membrane was blocked for 4 hours at 4° C. in blocking solution then incubated overnight at 4° C. in a 1:200 dilution of rabbit anti-ABCA1antibody (Santa Cruz Biotechnology). The following day, the membrane was washed 5 times in TTBS for 5 mins per wash then incubated at room temperature in a 1:5000 dilution of ECL donkey anti-rabbit IgG Horseradish peroxidase-linked species-specific whole antibody. Development proceeded as described above for the 27-OHase antibody.
# as §1
# Western Blots: Total cell lysate protein samples (10 μg/lane) were boiled for 5 min, loaded onto a 7.5% polyacrylamide gel, electrophoresed for 1.5 hr at 100V then transferred to a nitrocellulose membrane in a semi-dry transblot apparatus for 1 hr at 100V. For ABCA1 detection, the primary antibody was a rabbit anti-human ABCA1 antibody (1:2000 dilution, Santa Cruz Biotechnology). […]
# [8] = tested on: 27-OHase in peripheral blood monocytes; test: 27-OHase in healthy monocytes isolated from peripheral blood (PBMC); type: cell-based, human; details: MTX 5 μM, 18 h
# Description: PBMC (peripheral blood mononuclear cell) isolation: Blood from healthy donors was collected in EDTA treated tubes, pooled and kept at 4° C. The pooled blood was adjusted to a density of 1.120 g/ml with the addition of OptiPrep Density Gradient Media (Sigma) according to the manufacturer's instructions. The blood was then overlaid with a 1.074 g/ml density solution composed of complete RPMI containing 10% FBS and OptiPrep media. A layer of complete RPMI containing 10% FBS was then overlaid on top to prevent monocytes from sticking to the plastic tube. The blood was centrifuged at 750 g for 30 minutes at 4° C. After centrifugation, the monocyte interphase was collected from between the 1.074 g/ml and RPMI layer. The collected cells were diluted with 2 volumes of complete RPMI and harvested by centrifugation. The pellet was re-suspended in complete RPMI. The monocytes were counted by hemocytometer and plated at a density of 2×10^6 cells/well in a 6-well plate.
# PBMC: PBMC were incubated for 18 h in RPMI with 10% FBS with and without the addition of MTX at a concentration of 5 μM. Cells were collected and RNA isolated.
# [9] = vs NS-398 alone, NS-398 50 μM, CGS-21680 10 μM, 18 hrs
# [10] = acetylated LDL-treated THP-1 macrophages, MTX series, control 39.3±5.0%, n=3
# [11] = THP-1 macrophages, acetylated LDL
compound,measurement,setting,value
COC(=O)N1CCC(CC#Cc2nc(N)c3ncn([C@@H]4O[C@H](C(=O)NC5CC5)[C@@H](O)[C@H]4O)c3n2)CC1 [ATL313],effect on 27-OHase message,[1],increases 27-OHase message
same,effect on ABCA1 message,[2],increases 27-OHase as shown in FIG. 3b and ABCA1 mRNA and protein
"CCNC(=O)[C@H]1O[C@@H](n2cnc3c(N)nc(NCCc4ccc(CCC(=O)O)cc4)nc32)[C@H](O)[C@@H]1O [CGS-21680, 2-(4-(2-carboxyethyl)phenethylamino)-5′-N-ethylcarboxamidoadenosine]",terminal half-life,[3],19 ± 4 min
same,increase in 27-OHase message,[1],≤ 1.8 fold
same,increase in 27-OHase mRNA on addition of CGS-21680 to NS-398-treated THP-1 cells,[1]; [9],184%
same,increase in 27-OHase mRNA expression,[4],47±6.2%
same,effect on 27-OHase protein,[5],this decrease is reversed by the addition of the adenosine A2A agonist CGS-21680
same,increase in ABCA1 mRNA on addition of CGS-21680 to NS-398-treated THP-1 cells,[2]; [9],141%
"Cc1ccc(-c2cc(C(F)(F)F)nn2-c2ccc(S(N)(=O)=O)cc2)cc1 [Celecoxib, celecoxib]",foam cells,"[6]; 50 μM, acetylated LDL loading, control 39.1%±5.4",95.0%±0.7
same,decrease in ABCA1 protein expression vs. control,[7],25.6%±1.3
Nc1nc(OCCc2ccc(Cl)cc2)nc2c1ncn2[C@@H]1O[C@H](CO)[C@@H](O)[C@H]1O [MRE-0094],increase in 27-OHase message,[1],2 fold
same,increase in ABCA1 mRNA expression,[2]; THP-1 cells,1.8 fold
"CN(Cc1cnc2nc(N)nc(N)c2n1)c1ccc(C(=O)N[C@@H](CCC(=O)O)C(=O)O)cc1 [MTX, methotrexate]",effect on 27-OHase message,[1],completely blocked NS-398-induced downregulation of 27-OHase message
same,"27-OHase mRNA, % of control","[1]; NS-398 50 μM, CGS-21680 10 μM",113.9±6.4%
same,effect on 27-OHase protein,[5],corrected with increasing concentrations of MTX
same,effect on ABCA1 message,[2],effective in blocking COX-2 inhibitor-mediated downregulation of ABCA1 message
same,effect on 27-OHase in peripheral blood monocytes,[8],increases 27-OHase
CS(=O)(=O)Nc1ccc([N+](=O)[O-])cc1OC1CCCCC1 [NS-398],effect on 27-OHase message,[1],dramatically reduced cholesterol 27-OHase message
same,"27-OHase mRNA, % of control","[1]; NS-398 50 μM, CGS-21680 10 μM",71.1±4.3% and 58.9±2.3% and 62.4±2.2%
same,effect on 27-OHase protein,[5],27-OHase protein expression decreased
same,foam cell transformation,"[6]; THP-1 macrophages, NS-398 (10 μM, 18 hours), acetylated LDL, control 20.1±3.4%",42.7±6.6%
same,foam cells,[6]; [10],72.7±4.9%
same,"ABCA1 mRNA, % of control","[2]; THP-1 cells, NS-398 50 μM, CGS-21680 10 μM, 18 hrs, untreated = 100%, n=3",71.1±3.9% and 60.49±4.42%
Nc1nc(NCCc2ccc(O)cc2)nc2nc(-c3ccco3)nn12 [ZM-241385],reversal by A2A antagonist of agonist-induced rise in 27-OHase (and ABCA1) message,"[1]; THP-1, ZM-241385 with ATL313 or MRE-0094",this is reversed by ZM-241385; also recorded: reversed the effect of MRE-0094 on both these messages
same,effect on foam cell formation,[6]; [11],prevents MTX from decreasing NS-398-induced foam cell formation
same,foam cells after preincubation with A2A antagonist prior to MTX treatment,"[6]; acetylated LDL-treated THP-1 macrophages, ZM-241385 then MTX",62.1±1.5%
"IFN-γ: recombinant human IFN-γ, atherosclerosis-promoting cytokine (R&D Systems)",effect on 27-OHase message,[1],decreasing 27-OHase and ABCA1 message and protein expression
same,effect on foam cell formation,[6]; [11],formed foam cells more rapidly and in greater proportion than untreated control cells
same,foam cells,[6]; [10],71.0±5.0%
